Results published in patent US20170217976A1, “6-(AMINO ACID)-MORPHINAN DERIVATIVES IN COMBINATION WITH PERMEATION […] FOR USE AS AN ORALLY, […], TRA[…] NASALLY AD[…]” (C[…], priority 2014, published 2017).
Like-named read-outs stand apart in the source and are kept apart here.

Experiments:
MOR = target: T1, MOR (Rattus norvegicus, UniProt P33535); experiment: Opioid receptor binding, MOR, rat brain membranes
T1 construct: from tissue

DOR = target: T2, DOR (Rattus norvegicus, UniProt P33533); experiment: Opioid receptor binding, DOR, rat brain membranes
T2 construct: from tissue

KOR = target: T3, KOR (Cavia porcellus, UniProt P41144); experiment: Opioid receptor binding, KOR, guinea pig brain membranes
T3 construct: from tissue

[1] = Table 2-6, rat brain membranes, read-out: Binding Ki MOR
[2] = Table 2-6, rat brain membranes, read-out: Binding Ki DOR
[3] = Table 2-6, guinea pig brain membranes, read-out: Binding Ki KOR
[4] = in vitro binding assay, rat brain membranes, read-out: Binding Ki (nM) MOR
[5] = in vitro binding assay, rat brain membranes, read-out: Binding Ki (nM) DOR
[6] = in vitro binding assay, guinea pig brain membranes, read-out: Binding Ki (nM) KOR
[7] = Binding Ki MOR, Table 2-6, rat brain membranes
[8] = Binding Ki DOR, Table 2-6, rat brain membranes
[9] = Binding Ki KOR, Table 2-6, guinea pig brain membranes
[10] = Binding Ki (nM) MOR, in vitro binding assay, rat brain membranes
[11] = Binding Ki (nM) DOR, in vitro binding assay, rat brain membranes
[12] = Binding Ki (nM) KOR, in vitro binding assay, guinea pig brain membranes
[13] = Binding Ki MOR, Table 1-6, rat brain membranes
[14] = Binding Ki DOR, Table 1-6, rat brain membranes
[15] = Binding Ki KOR, Table 1-6, guinea pig brain membranes

T2 sequence (P33533 whole entry): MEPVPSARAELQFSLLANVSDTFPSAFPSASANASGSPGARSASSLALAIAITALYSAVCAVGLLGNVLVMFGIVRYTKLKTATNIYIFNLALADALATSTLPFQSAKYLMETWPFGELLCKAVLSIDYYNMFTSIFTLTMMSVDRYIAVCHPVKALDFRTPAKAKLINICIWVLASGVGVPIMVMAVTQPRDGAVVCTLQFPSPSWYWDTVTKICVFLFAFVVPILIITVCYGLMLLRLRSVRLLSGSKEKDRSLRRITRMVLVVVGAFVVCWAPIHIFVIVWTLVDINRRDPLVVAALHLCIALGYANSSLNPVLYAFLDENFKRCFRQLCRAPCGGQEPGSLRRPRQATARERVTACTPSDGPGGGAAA
T1 sequence (P33535 whole entry): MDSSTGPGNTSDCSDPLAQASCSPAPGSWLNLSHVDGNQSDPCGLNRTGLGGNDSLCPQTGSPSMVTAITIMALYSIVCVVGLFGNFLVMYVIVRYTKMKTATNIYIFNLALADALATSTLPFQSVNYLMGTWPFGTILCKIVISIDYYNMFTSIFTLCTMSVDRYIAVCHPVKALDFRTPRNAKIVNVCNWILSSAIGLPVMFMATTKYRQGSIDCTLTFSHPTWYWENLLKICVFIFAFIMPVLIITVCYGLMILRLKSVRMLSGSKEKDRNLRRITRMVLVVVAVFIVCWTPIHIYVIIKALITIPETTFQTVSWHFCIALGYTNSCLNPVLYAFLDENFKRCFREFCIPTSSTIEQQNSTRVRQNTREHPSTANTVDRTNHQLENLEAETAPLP
T3 sequence (P41144 whole entry): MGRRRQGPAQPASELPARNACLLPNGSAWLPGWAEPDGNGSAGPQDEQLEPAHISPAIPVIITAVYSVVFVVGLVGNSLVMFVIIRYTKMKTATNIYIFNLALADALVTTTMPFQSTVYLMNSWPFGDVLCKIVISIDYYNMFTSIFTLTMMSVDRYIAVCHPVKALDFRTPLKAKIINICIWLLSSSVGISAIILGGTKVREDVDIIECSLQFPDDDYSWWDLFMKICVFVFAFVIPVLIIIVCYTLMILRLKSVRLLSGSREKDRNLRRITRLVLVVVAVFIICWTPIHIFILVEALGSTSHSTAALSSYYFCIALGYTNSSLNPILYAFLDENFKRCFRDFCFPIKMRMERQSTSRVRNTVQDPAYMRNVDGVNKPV

Row | Structure (SMILES) | Ki (MOR; [4]) [nM] | Ki (DOR; [5]) [nM] | Ki (KOR; [6]) [nM] | Ki (MOR; [10]) [nM] | Ki (DOR; [11]) [nM] | Ki (KOR; [12]) [nM] | also measured
1 | CO[C@@]12CC[C@H](N[C@H](C(=O)OC(C)(C)C)C(C)C)[C@@H]3Oc4c(O)ccc5c4[C@@]31CCN(CC1CC1)[C@@H]2C5 [68-tBu ester] |  |  |  |  |  |  | Ki (MOR; [1]): 1.81 nM; Ki (DOR; [2]): 0.85 nM; Ki (KOR; [3]): 3.13 nM
2 | CCOC(=O)CNC1CCC2(OCCCc3ccccc3)C3Cc4ccc(O)c5c4C2(CCN3C)C1O5 (stereo not drawn) [7-Et ester] | 0.43 | 0.25 | 0.44 |  |  |  | 
3 | CCCCCCCCOC(=O)CN[C@@H]1CC[C@@]2(OC)[C@H]3Cc4ccc(O)c5c4[C@@]2(CCN3C)[C@H]1O5 [HS731-nOc ester] | 2.56 | 2.71 | 3.87 |  |  |  | 
4 | CC(C)(C)OC(=O)[C@H](Cc1ccccc1)N[C@@H]1CC[C@@]2(O)[C@H]3Cc4ccc(O)c5c4[C@@]2(CCN3CC2CC2)[C@H]1O5 [60-tBu ester] |  |  |  |  |  |  | Ki (MOR; [7]): 5.49 nM; Ki (DOR; [8]): 1.12 nM; Ki (KOR; [9]): 17.6 nM
5 | CO[C@@]12CC[C@H](NCCC(=O)OC(C)(C)C)[C@@H]3Oc4c(O)ccc5c4[C@@]31CCN(C)[C@@H]2C5 [21-t-Bu ester] |  |  |  | 0.31 | 0.83 | 13.5 | 
6 | COC12CCC(NC(C(=O)O)C(C)C)C3Oc4c(O)ccc5c4C31CCN(CC1CC1)C2C5 (single isomer, unassigned) [Compound 69] |  |  |  |  |  |  | Ki (MOR; [13]): 0.66 nM; Ki (MOR; [7]): 0.66 nM; Ki (DOR; [14]): 1.35 nM; Ki (DOR; [8]): 1.35 nM; Ki (KOR; [15]): 3 nM; Ki (KOR; [9]): 3 nM
7 | CCO[C@@]12CC[C@H](NCC(=O)OC(C)(C)C)[C@@H]3Oc4c(O)ccc5c4[C@@]31CCN(C)[C@@H]2C5 [5-t-Bu ester] |  |  |  | 0.2 | 0.31 | 15 | 
8 | CO[C@@]12CC[C@H](N[C@H](C(=O)N[C@@H](Cc3ccc(O)cc3)C(=O)OC(C)(C)C)C(C)C)[C@@H]3Oc4c(O)ccc5c4[C@@]31CCN(C)[C@@H]2C5 [32-t-Bu ester] |  | 0.17 | 3.5 | 0.11 |  |  | 
9 | CN1CCC23c4c5ccc(O)c4OC2C(NCC(=O)OC(C)(C)C)CCC3(OCCCc2ccccc2)C1C5 (stereo not drawn) [8-t-Bu ester] | 1.03 | 0.92 | 2.02 |  |  |  | 
10 | CO[C@@]12CC[C@@H](NCCCC(=O)OC(C)(C)C)[C@@H]3Oc4c(O)ccc5c4[C@@]31CCN(CC1CC1)[C@@H]2C5 [66-tBu ester] |  |  |  |  |  |  | Ki (MOR; [7]): 2.13 nM; Ki (DOR; [8]): 3.78 nM; Ki (KOR; [9]): 2.81 nM
11 | CO[C@@]12CC[C@@H](N[C@@H](CO)C(=O)OC(C)(C)C)[C@@H]3Oc4c(O)ccc5c4[C@@]31CCN(C)[C@@H]2C5 [37-t-Bu ester] | 0.6 | 0.64 | 83.3 |  |  |  | 
12 | COC12CCC(NC(C(=O)O)C(C)C)C3Oc4c(O)ccc5c4C31CCN(C)C2C5 (single isomer, unassigned) [Compound 31] |  |  |  | 1.02 | 1.68 | 159 | Ki (MOR; Binding Ki MOR, Table 1-4, rat brain membranes): 1.02 nM; Ki (DOR; Binding Ki DOR, Table 1-4, rat brain membranes): 1.68 nM; Ki (KOR; Binding Ki KOR, Table 1-4, guinea pig brain membranes): 159 nM
13 | CO[C@@]12CC[C@H](N[C@@H](C)C(=O)OC(C)(C)C)[C@@H]3Oc4c(O)ccc5c4[C@@]31CCN(C)[C@@H]2C5 [1-t-Bu ester] |  |  |  | 0.29 | 0.41 | 11.3 | 
14 | CO[C@@]12CC[C@@H](N[C@@H](CCCCN)C(=O)O)[C@@H]3Oc4c(O)ccc5c4[C@@]31CCN(C)[C@@H]2C5 [Compound 39] | 0.53 | 3.34 | 33.7 |  |  |  | Ki (MOR; Table 1-4, rat brain membranes, read-out: Binding Ki MOR): 0.53 nM; Ki (DOR; Table 1-4, rat brain membranes, read-out: Binding Ki DOR): 3.34 nM; Ki (KOR; Table 1-4, guinea pig brain membranes, read-out: Binding Ki KOR): 33.7 nM
15 | CCOC(=O)CNC1CCC2(OCCCc3ccccc3)C3Cc4ccc(O)c5c4C2(CCN3C)C1O5 (stereo not drawn) [8-Et ester] | 0.37 | 0.21 | 0.41 |  |  |  | 
16 | CCOC(=O)CN[C@H]1CC[C@@]2(OC)[C@H]3Cc4ccc(O)c5c4[C@@]2(CCN3C)[C@H]1O5 [HS730-Et ester] |  |  |  | 0.28 | 0.96 | 8.57 | 
17 | CO[C@@]12CC[C@@H](NCC(=O)OC(C)(C)C)[C@@H]3Oc4c(O)ccc5c4[C@@]31CCN(CC1CC1)[C@@H]2C5 [62-Bu ester] |  |  |  |  |  |  | Ki (MOR; [1]): 2.66 nM; Ki (DOR; [2]): 0.96 nM; Ki (KOR; [3]): 8.36 nM
18 | CO[C@@]12CC[C@@H](N[C@@H](CC(=O)O)C(=O)O)[C@@H]3Oc4c(O)ccc5c4[C@@]31CCN(CC1CC1)[C@@H]2C5 [Compound 73] |  |  |  |  |  |  | Ki (MOR; [13]): 2.24 nM; Ki (MOR; [7]): 2.24 nM; Ki (DOR; [14]): 0.64 nM; Ki (DOR; [8]): 0.64 nM; Ki (KOR; [15]): 11.7 nM; Ki (KOR; [9]): 11.7 nM
19 | CO[C@@]12CC[C@@H](N[C@@H](C)C(=O)OC(C)(C)C)[C@@H]3Oc4c(O)ccc5c4[C@@]31CCN(C)[C@@H]2C5 [2-t-Bu ester] |  |  |  | 1.13 | 1.36 | 93.6 | 
